Laboratory results published in ChEMBL document CHEMBL5113536, “Triphosphate Prodrugs of the Anti-HIV-Active Compound 3'-Deoxy-3'-fluorothymidine (FLT)” (J Med Chem, 2022).
Blank lines part the entries; values can stand above or below the compound they belong to. The source made the active and inactive calls. The calls are words filed in the database; no cut-off is given here.

Legend:
[1] = Stability in PBS buffer assessed as clevage of first masking group half life in at pH 7.3 in presence of CEM/0 cell extract medium by RP-HPLC analysis; assay type: physicochemical; settings: human, PBS buffer with CEM/0 cell extract
[2] = Stability in buffer assessed as pig liver esterase-mediated clevage of first masking group half life at pH 7.3 by RP-HPLC analysis; assay type: ADME, tissue-based
[3] = Stability of the compound assessed as cleaved half life in presence of CEM/0 cell extract medium measured upto 25 hrs by RP-HPLC analysis; assay type: physicochemical; settings: human
[4] = Metabolic stability of the compound in mouse liver extract assessed as compound remaining measured after 24 hrs in presence of mouse liver extract medium by RP-HPLC analysis relative to control; assay type: ADME, tissue-based; settings: read-out: Stability
[5] = Chemical stability in PBS buffer assessed half life measured after 24 hrs in presence of CEM/0 cell extract medium by RP-HPLC analysis relative to control; assay type: physicochemical; settings: human, PBS buffer with CEM/0 cell extract
[6] = Chemical stability in PBS buffer assessed dephosphorylated half life measured after 24 hrs in presence of CEM/0 cell extract medium by RP-HPLC analysis relative to control; assay type: physicochemical; settings: human, PBS buffer with CEM/0 cell extract
[7] = tested on: Human immunodeficiency virus 1; assay: Antiviral activity against HIV1 HE strain infected in CEM/0 cells assessed as inhibition of HIV induced cytopathogenic effects; assay type: functional, organism-based; settings: Human immunodeficiency virus 1, HE, CCRF-CEM
[8] = tested on: Human immunodeficiency virus 2; assay: Antiviral activity against HIV2 ROD infected in CEM/0 cells assessed as inhibition of HIV induced cytopathogenic effects; assay type: functional, organism-based; settings: Human immunodeficiency virus 2, ROD, CCRF-CEM
[9] = tested on: Human immunodeficiency virus 2; assay: Antiviral activity against […] HIV2 ROD infected in CEM-TK(-) cells assessed as inhibition of HIV induced cytopathogenic effects; assay type: functional, organism-based; settings: Human immunodeficiency virus 2, ROD
[10] = Cytotoxicity in human CEM/0 cells assessed as reduction in cell viability; assay type: toxicity, cell-based; settings: CEM/0 cells (CCRF-CEM)
[11] = Metabolic stability of the compound in pig liver extract assessed as half life measured after 24 hrs in presence of pig liver extract medium by RP-HPLC analysis; assay type: ADME, tissue-based, Sus scrofa
[12] = Metabolic stability of the compound in mouse liver extract assessed as hydrolysis half life measured after 24 hrs in presence of mouse liver extract medium by RP-HPLC analysis; assay type: ADME, tissue-based
[13] = tested on: Human immunodeficiency virus; assay: Substrate activity at HIV reverse transcriptase assessed as DNA elongation using 5'-Cy3-CGTTG GTCCT GAAGG AGGAT AGG1T-3' as primer and 3'-GCAACCAGGACTTCCTCCTATCCAAAGACA-5' as template incubated at 37 degree C for 15 mins and at 80 degreeC for 3 mins by primer extension assay; settings: time 18.0 min
[14] = target: DNA polymerase beta (Homo sapiens) (UniProt P06746); assay: Substrate activity at human DNA polymerase beta using 5'-Cy3-CGTTG GTCCT GAAGG AGGAT AGG1T-3' as primer and 3'-GCAACCAGGACTTCCTCCTATCCAAAGACA-5' as template incubated at 37 degree C for 60 mins and at 80 degreeC for 3 mins by primer extension assay; settings: time 63.0 min
[15] = tested on: Human immunodeficiency virus; assay: Substrate activity at HIV reverse transcriptase assessed as DNA elongation using 5'-Cy3-CGTTG GTCCT GAAGG AGGAT AGG1T-3' as primer and 3'-GCAACCAGGACTTCCTCCTATCCAAAGACA-5' as template incubated at 37 degree C for 15 mins and at 80 degreeC for 3 mins in presence of TTP by primer extension assay; settings: time 18.0 min

Structure (SMILES): CCCCCCCCCC(=O)Oc1ccc(COP(=O)(OCc2ccc(OC(=O)CCCCCCCCC)cc2)OP(=O)([O-])OP(=O)([O-])OC[C@H]2O[C@@H](n3cc(C)c(=O)[nH]c3=O)C[C@@H]2F)cc1.[Na+].[Na+]
half-life [1]: 3.38 days
half-life [2]: 3.16 min
half-life [3]: 140 min

Structure (SMILES): Cc1cn([C@H]2C[C@H](F)[C@@H](COP(=O)(O)OP(=O)(O)OP(=O)(O)O)O2)c(=O)[nH]c1=O.N.N.N.N
half-life [5]: 30 min
half-life [6]: 25.8 min
half-life [12]: 5.04 min
Activity [13]: Active
Activity [14]: Active
Activity [15]: Active

Continued, in another order:

remaining at 24 h [4]: 39%
Structure (SMILES): CCCCCCCCCCCCCCCCOP(=O)(O)OP(=O)(O)OP(=O)(O)OC[C@H]1O[C@@H](n2cc(C)c(=O)[nH]c2=O)C[C@@H]1F

half-life [5]: 30 min
half-life [6]: 25.8 min
Structure (SMILES): Cc1cn([C@H]2C[C@H](O)[C@@H](COP(=O)(O)OP(=O)(O)OP(=O)(O)O)O2)c(=O)[nH]c1=O [DEOXYTHYMIDINE_TRIPHOSPHATE]

EC50 [7]: 1.6 nM
EC50 [8]: 3.2 nM
EC50 [9]: 70 µM
Structure (SMILES): Cc1cn([C@H]2C[C@H](F)[C@@H](CO)O2)c(=O)[nH]c1=O [ALOVUDINE]
CC50 [10]: > 100 µM

half-life [3]: 144 min
half-life [11]: 0.582 min
Structure (SMILES): CCCCCCCCCCCCCCCCOP(=O)(OCc1ccc(OC(=O)CCC)cc1)OP(=O)(O)OP(=O)(O)OC[C@H]1O[C@@H](n2cc(C)c(=O)[nH]c2=O)C[C@@H]1F.N.N (stereo partly drawn)
